Experimental data published in PMC4450297, “Screening Active Compounds from Garcinia Species Native to China Reveals Novel Compounds Targeting the STAT/JAK Signaling Pathway” (BioMed Research International, 2015).

Each molecule was assayed on HT-1197 (assay: Cell panel screen (CellTiter-Glo)). Details: HT-1197 (Urinary bladder), 20 micromolar, 72 hrs.
Type: cell-based, human
Method: (§1) All cells were obtained from the cell bank of the American Type Culture Collection (ATCC) and cultured in the supplier's recommended media supplemented with 10% FBS. The cell panel screen was measured using the CellTiter-Glo assay (Promega, Madison, WI) following a standard protocol. Briefly, cancer cells were seeded in 96-well plates and cultured overnight at 37°C with or without 5% CO2 in an incubator. Each compound was dissolved with limited DMSO and diluted to a certain concentration with culture medium and then added to the corresponding well of the cell plate. The final concentration of compound was 20 μM. The control cells (without treatment) received the same amount of DMSO and were incubated under the same conditions. After 72 h cultivation, 100 μL of the CellTiter-Glo reagent was added directly to each well for 10-minute incubation. The plate was then read on a FlexStation 3 microplate luminometer (Molecular Devices, USA) to monitor the luminescence signal generated by the luciferase-catalyzed reaction of luciferin and ATP. The percent of growth inhibition was calculated using the following formula: (untreated cells − treated cells)/(untreated cells − background without cells) ∗ 100.

Row | SMILES | Percent Inhibition
1 | COc1c(O)c(O)c2c(=O)c3c(CC=C(C)C)c(CC=C(C)C)c(O)c(O)c3oc2c1CC=C(C)C [Compound N-7] | 13%

The molecules below were run on J82 (assay: Cell panel screen (CellTiter-Glo)). Details: J82 (Urinary bladder), 20 micromolar, 72 hrs.
Type: cell-based, human
Method: as §1

Row | SMILES | Percent Inhibition
2 | COc1c(O)c(O)c2c(=O)c3c(CC=C(C)C)c(CC=C(C)C)c(O)c(O)c3oc2c1CC=C(C)C [Compound N-7] | 17%

Each molecule was assayed on M059J (assay: Cell panel screen (CellTiter-Glo)). Details: M059J (Brain), 20 micromolar, 72 hrs.
Type: cell-based, human
Method: as §1

Row | SMILES | Percent Inhibition
3 | COc1c(O)c(O)c2c(=O)c3c(CC=C(C)C)c(CC=C(C)C)c(O)c(O)c3oc2c1CC=C(C)C [Compound N-7] | 10%

These molecules were tested on MSTO-211-H (assay: Cell panel screen (CellTiter-Glo)). Details: MSTO-211-H (Lung), 20 micromolar, 72 hrs.
Type: cell-based, human
Method: as §1

Row | SMILES | Percent Inhibition
4 | COc1c(O)c(O)c2c(=O)c3c(CC=C(C)C)c(CC=C(C)C)c(O)c(O)c3oc2c1CC=C(C)C [Compound N-7] | -1%

The molecules below were run on NCI-H1623 (assay: Cell panel screen (CellTiter-Glo)). Details: NCI-H1623 (Lung), 20 micromolar, 72 hrs.
Type: cell-based, human
Method: as §1

Row | SMILES | Percent Inhibition
5 | COc1c(O)c(O)c2c(=O)c3c(CC=C(C)C)c(CC=C(C)C)c(O)c(O)c3oc2c1CC=C(C)C [Compound N-7] | -8%

Each molecule was assayed on NCI-H1694 (assay: Cell panel screen (CellTiter-Glo)). Details: NCI-H1694 (Lung), 20 micromolar, 72 hrs.
Type: cell-based, human
Method: as §1

Row | SMILES | Percent Inhibition
6 | COc1c(O)c(O)c2c(=O)c3c(CC=C(C)C)c(CC=C(C)C)c(O)c(O)c3oc2c1CC=C(C)C [Compound N-7] | 25%

These molecules were tested on NCI-H1770 (assay: Cell panel screen (CellTiter-Glo)). Details: NCI-H1770 (Lung), 20 micromolar, 72 hrs.
Type: cell-based, human
Method: as §1

Row | SMILES | Percent Inhibition
7 | COc1c(O)c(O)c2c(=O)c3c(CC=C(C)C)c(CC=C(C)C)c(O)c(O)c3oc2c1CC=C(C)C [Compound N-7] | -6%

What follows are molecules tested on NCI-H2347 (assay: Cell panel screen (CellTiter-Glo)). Details: NCI-H2347 (Lung), 20 micromolar, 72 hrs.
Type: cell-based, human
Method: as §1

Row | SMILES | Percent Inhibition
8 | COc1c(O)c(O)c2c(=O)c3c(CC=C(C)C)c(CC=C(C)C)c(O)c(O)c3oc2c1CC=C(C)C [Compound N-7] | -18%

What follows are molecules tested on NCI-H2405 (assay: Cell panel screen (CellTiter-Glo)). Details: NCI-H2405 (Lung), 20 micromolar, 72 hrs.
Type: cell-based, human
Method: as §1

Row | SMILES | Percent Inhibition
9 | COc1c(O)c(O)c2c(=O)c3c(CC=C(C)C)c(CC=C(C)C)c(O)c(O)c3oc2c1CC=C(C)C [Compound N-7] | -7%

What follows are molecules tested on NCI-H28 (assay: Cell panel screen (CellTiter-Glo)). Details: NCI-H28 (Lung), 20 micromolar, 72 hrs.
Type: cell-based, human
Method: as §1

Row | SMILES | Percent Inhibition
10 | COc1c(O)c(O)c2c(=O)c3c(CC=C(C)C)c(CC=C(C)C)c(O)c(O)c3oc2c1CC=C(C)C [Compound N-7] | 21%

The molecules below were run on NCI-H524 (assay: Cell panel screen (CellTiter-Glo)). Details: NCI-H524 (Lung), 20 micromolar, 72 hrs.
Type: cell-based, human
Method: as §1

Row | SMILES | Percent Inhibition
11 | COc1c(O)c(O)c2c(=O)c3c(CC=C(C)C)c(CC=C(C)C)c(O)c(O)c3oc2c1CC=C(C)C [Compound N-7] | -30%

Each molecule was assayed on Panc 03.27 (assay: Cell panel screen (CellTiter-Glo)). Details: Panc 03.27 (Pancreas), 20 micromolar, 72 hrs.
Type: cell-based, human
Method: as §1

Row | SMILES | Percent Inhibition
12 | COc1c(O)c(O)c2c(=O)c3c(CC=C(C)C)c(CC=C(C)C)c(O)c(O)c3oc2c1CC=C(C)C [Compound N-7] | -24%

The molecules below were run on RL95 (assay: Cell panel screen (CellTiter-Glo)). Details: RL95 (Uterus), 20 micromolar, 72 hrs.
Type: cell-based, human
Method: as §1

Row | SMILES | Percent Inhibition
13 | COc1c(O)c(O)c2c(=O)c3c(CC=C(C)C)c(CC=C(C)C)c(O)c(O)c3oc2c1CC=C(C)C [Compound N-7] | -16%

What follows are molecules tested on SW13 (assay: Cell panel screen (CellTiter-Glo)). Details: SW13 (Adrenal gland), 20 micromolar, 72 hrs.
Type: cell-based, human
Method: as §1

Row | SMILES | Percent Inhibition
14 | COc1c(O)c(O)c2c(=O)c3c(CC=C(C)C)c(CC=C(C)C)c(O)c(O)c3oc2c1CC=C(C)C [Compound N-7] | -14%

These molecules were tested on T47D (assay: Cell panel screen (CellTiter-Glo)). Details: T47D (Breast), 20 micromolar, 72 hrs.
Type: cell-based, human
Method: as §1

Row | SMILES | Percent Inhibition
15 | COc1c(O)c(O)c2c(=O)c3c(CC=C(C)C)c(CC=C(C)C)c(O)c(O)c3oc2c1CC=C(C)C [Compound N-7] | -9%

What follows are molecules tested on T98G (assay: Cell panel screen (CellTiter-Glo)). Details: T98G (Brain), 20 micromolar, 72 hrs.
Type: cell-based, human
Method: as §1

Row | SMILES | Percent Inhibition
16 | COc1c(O)c(O)c2c(=O)c3c(CC=C(C)C)c(CC=C(C)C)c(O)c(O)c3oc2c1CC=C(C)C [Compound N-7] | 17%

The molecules below were run on TCCSUP (assay: Cell panel screen (CellTiter-Glo)). Details: TCCSUP (Urinary bladder), 20 micromolar, 72 hrs.
Type: cell-based, human
Method: as §1

Row | SMILES | Percent Inhibition
17 | COc1c(O)c(O)c2c(=O)c3c(CC=C(C)C)c(CC=C(C)C)c(O)c(O)c3oc2c1CC=C(C)C [Compound N-7] | 18%

What follows are molecules tested on ZR-75-30 (assay: Cell panel screen (CellTiter-Glo)). Details: ZR-75-30 (Breast), 20 micromolar, 72 hrs.
Type: cell-based, human
Method: as §1

Row | SMILES | Percent Inhibition
18 | COc1c(O)c(O)c2c(=O)c3c(CC=C(C)C)c(CC=C(C)C)c(O)c(O)c3oc2c1CC=C(C)C [Compound N-7] | -11%
